Assay results as given in the supplement of paper PMC10307832.

Columns and labels:
Experiment in all cases: relative viability (nuclei count vs DMSO), 5 days (fraction); higher = more cells survive
COR-L 105 = test system: COR-L 105
Procedure, shortened: (§1)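 Lung cancer cell lines in 1536-well plates were dosed by pin tool the day after seeding, either with one drug alone or with a fixed anchor-drug dose plus five library-drug doses (not always all listed) in √10 steps. After 5 days, cells were fixed and their nuclei stained in one step (final 0.05% Triton X-100, 1% formaldehyde, 1 ug/ml Hoechst), then counted on 4× images. Relative viability is the nuclei count in treated wells divided by that in vehicle wells. Values are medians of duplicate plates.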

COR-L23 = test system: COR-L23
Procedure, shortened: as §1

HARA = test system: HARA
Procedure, shortened: as §1

HCC-15 = test system: HCC-15
Procedure, shortened: as §1

HOP-62 = test system: HOP-62
Procedure, shortened: as §1

NCI-H1355 = test system: NCI-H1355
Procedure, shortened: as §1

NCI-H1395 = test system: NCI-H1395
Procedure, shortened: as §1

NCI-H1734 = test system: NCI-H1734
Procedure, shortened: as §1

NCI-H1755 = test system: NCI-H1755
Procedure, shortened: as §1

NCI-H1792 = test system: NCI-H1792
Procedure, shortened: as §1

NCI-H1793 = test system: NCI-H1793
Procedure, shortened: as §1

## CC(=O)O[C@@]12CO[C@@H]1C[C@H](O)[C@@]1(C)C(=O)[C@H](O)C3=C(C)[C@@H](OC(=O)[C@H](O)[C@@H](NC(=O)OC(C)(C)C)c4ccccc4)C[C@@](O)([C@@H](OC(=O)c4ccccc4)[C@H]21)C3(C)C [Docetaxel] + N=C(N)NC(=N)NCCc1ccccc1 [Phenformin] (partner 250 µM)
COR-L 105; first compound 0.0002 µM
  relative viability: 0.431
COR-L 105; first compound 0.000632 µM
  relative viability: 0.392
COR-L 105; first compound 0.002 µM
  relative viability: 0.279
COR-L 105; first compound 0.006325 µM
  relative viability: 0.267
COR-L 105; first compound 0.02 µM
  relative viability: 0.247
COR-L23; first compound 0.0002 µM
  relative viability: 0.399
COR-L23; first compound 0.000632 µM
  relative viability: 0.32
COR-L23; first compound 0.002 µM
  relative viability: 0.167
COR-L23; first compound 0.006325 µM
  relative viability: 0.106
COR-L23; first compound 0.02 µM
  relative viability: 0.098
HARA; first compound 0.0002 µM
  relative viability: 0.387
HARA; first compound 0.000632 µM
  relative viability: 0.19
HARA; first compound 0.002 µM
  relative viability: 0.0801
HARA; first compound 0.006325 µM
  relative viability: 0.0508
HARA; first compound 0.02 µM
  relative viability: 0.0419
HCC-15; first compound 0.0002 µM
  relative viability: 0.402
HCC-15; first compound 0.000632 µM
  relative viability: 0.315
HCC-15; first compound 0.002 µM
  relative viability: 0.181
HCC-15; first compound 0.006325 µM
  relative viability: 0.203
HCC-15; first compound 0.02 µM
  relative viability: 0.113
HOP-62; first compound 0.0002 µM
  relative viability: 0.671
HOP-62; first compound 0.000632 µM
  relative viability: 0.501
HOP-62; first compound 0.002 µM
  relative viability: 0.322
NCI-H1355; first compound 0.0002 µM
  relative viability: 0.463
NCI-H1355; first compound 0.000632 µM
  relative viability: 0.402
NCI-H1355; first compound 0.002 µM
  relative viability: 0.385
NCI-H1355; first compound 0.006325 µM
  relative viability: 0.287
NCI-H1355; first compound 0.02 µM
  relative viability: 0.217
NCI-H1395; first compound 0.0002 µM
  relative viability: 0.434
NCI-H1395; first compound 0.000632 µM
  relative viability: 0.45
NCI-H1395; first compound 0.002 µM
  relative viability: 0.442
NCI-H1395; first compound 0.006325 µM
  relative viability: 0.283
NCI-H1395; first compound 0.02 µM
  relative viability: 0.334
NCI-H1734; first compound 0.0002 µM
  relative viability: 0.296
NCI-H1734; first compound 0.000632 µM
  relative viability: 0.338
NCI-H1734; first compound 0.002 µM
  relative viability: 0.232
NCI-H1734; first compound 0.006325 µM
  relative viability: 0.221
NCI-H1734; first compound 0.02 µM
  relative viability: 0.168
NCI-H1755; first compound 0.0002 µM
  relative viability: 0.621
NCI-H1755; first compound 0.000632 µM
  relative viability: 0.577
NCI-H1755; first compound 0.002 µM
  relative viability: 0.411
NCI-H1755; first compound 0.006325 µM
  relative viability: 0.434
NCI-H1755; first compound 0.02 µM
  relative viability: 0.36
NCI-H1792; first compound 0.0002 µM
  relative viability: 0.221
NCI-H1792; first compound 0.000632 µM
  relative viability: 0.23
NCI-H1792; first compound 0.002 µM
  relative viability: 0.0848
NCI-H1792; first compound 0.006325 µM
  relative viability: 0.126
NCI-H1792; first compound 0.02 µM
  relative viability: 0.0575
NCI-H1793; first compound 0.0002 µM
  relative viability: 0.302
NCI-H1793; first compound 0.000632 µM
  relative viability: 0.319
NCI-H1793; first compound 0.002 µM
  relative viability: 0.322
NCI-H1793; first compound 0.006325 µM
  relative viability: 0.245
NCI-H1793; first compound 0.02 µM
  relative viability: 0.173
